# Test results: PMC7238232, “Acamprosate Is a Substrate of the Human Organic Anion Transporter (OAT) 1 without OAT3 Inhibitory Properties: Implications for Renal Acamprosate Secretion and Drug–Drug Interactions” (Pharmaceutics, 2020)
# Where “and” joins values, the source holds several entries; their conditions need not be identical. Identical values can stand only once. Like-named read-outs stand apart in the source and are kept apart here.
# Experiments:
# [1] = system: human OAT1; conditions: cited from earlier work; for Km: read-out: Km of other OAT1 substrates
# [2] = target: T1, OAT3 (Homo sapiens, UniProt Q8TCC7); test: [3H]-E3S uptake and its inhibition in HEK293-Flp-In OAT3 cells; format: cell-based; conditions: 0.02 µM [3H]-E3S; 200 µM E3S, 300 µM probenecid, 1000 or 10,000 µM acamprosate; Lab. 2
# T1 sequence (Q8TCC7 1-542): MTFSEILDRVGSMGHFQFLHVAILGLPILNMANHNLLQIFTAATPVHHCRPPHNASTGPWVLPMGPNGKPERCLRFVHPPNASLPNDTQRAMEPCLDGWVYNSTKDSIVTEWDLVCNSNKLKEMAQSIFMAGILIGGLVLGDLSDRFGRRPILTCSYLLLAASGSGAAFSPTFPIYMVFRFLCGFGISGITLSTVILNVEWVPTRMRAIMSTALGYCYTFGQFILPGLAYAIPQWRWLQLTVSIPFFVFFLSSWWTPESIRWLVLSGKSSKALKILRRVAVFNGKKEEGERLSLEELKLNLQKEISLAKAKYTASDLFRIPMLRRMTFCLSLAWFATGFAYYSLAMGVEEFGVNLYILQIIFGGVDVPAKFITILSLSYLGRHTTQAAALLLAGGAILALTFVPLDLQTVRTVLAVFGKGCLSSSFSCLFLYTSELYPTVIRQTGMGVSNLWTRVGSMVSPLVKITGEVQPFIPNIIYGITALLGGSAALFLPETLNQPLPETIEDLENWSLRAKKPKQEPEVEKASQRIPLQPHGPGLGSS
# Method: All uptake experiments were performed on 24- or 96-well plates. Before the experiment initiation, the cells were incubated with either 500 or 200 µL∙well^−1 prewarmed buffer for 10 min at 37 °C in a microplate incubator (VWR International AB, Stockholm, Sweden), without shaking. […] The experiment was stopped by adding 200 µL∙well^−1 of ice-cold buffer and subsequent rinse three times with the same amount of buffer. In Lab. 1 the sample analysis of the OAT1/OAT3/mock studies consisted in removing the rinsing buffer and lysing the cells with 70 µL 1M NaOH, following by incubation for 60 min at 37 °C and 100 rpm. A total of 50 µL of cell lysate from each well was transferred to 96-well Luma plates bottom coated with dry scintillant. Then, 2∙20 µL of each donor and three 50 µL blank samples were applied on the same plate. The dry plates were covered with transparent seals and analyzed using a TopCount NXT Microplate Scintillation and Luminescence Counter (Perkin Elmer, Waltham, MA, USA). The remaining 20 µL cell lysate was neutralized with 20 µL 1M HCl∙well^−1, samples were mixed thoroughly and the total protein content in all the wells was measured using a BCA protein assay kit, microplate method, and a Tecan Safire II fluorometer (Tecan Austria GmbH, Grödig, Austria). For the experiments in Lab. 2, the cells were lysed by adding 200 µL 0.1% Triton X-100 and incubated for 5 min at 37 °C and 100 rpm. […] The total protein content was measured by using a BCA protein assay kit and a FLUOStar Omega fluorescence microplate reader (BMG Labtech, Ortenberg, Germany). The protein assay for the OAT3 and mock cell lines was performed in four independent wells of each cell line, seeded and treated in the same manner as the cells used in the uptake assay. For all the OAT1, OAT3, and mock isotope uptake studies, the radiolabelled tracer accumulation (pmol) in each well was calculated by first determining the activity of the isotope (DPM∙pmol^−1) from the radioactivity (DPM) of the donor sample divided by the theoretical isotope concentration (pmol), then dividing the total radioactivity in the well (DPM) to the specific activity of the isotope (DPM∙pmol^−1).
# A range of preincubation solutions was prepared at the same concentrations of acamprosate applied in the inhibition assays. Acamprosate was dissolved in HBSS buffered with 10 mM HEPES and the pH was adjusted to 7.40 ± 0.01. The preincubation solutions were prewarmed to 37 °C and applied to the corresponding cells after removing the cell growth medium. The preincubation was done for 3 h, at 37 °C, without shaking. After the preincubation, the solutions were removed, and the inhibition experiment was performed as described in the Section 2.6.
# The obtained intracellular amounts (pmol) were normalized to the assay time (min) and cell surface area (cm^2) or protein amount (mg protein) to obtain a term hereafter referred to as uptake rate. […] Assuming competitive interaction, equilibrium dissociation constants, Ki, were calculated from the IC50 value for each substrate/inhibitor pair, at substrate Km, using the Cheng–Prusoff equation [24].
# [3] = probenecid, oral, cited from earlier work
# [4] = system: HEK293-Flp-In mock cells; test: Control uptake studies in HEK293-Flp-In mock cells; conditions: for effect on uptake of [3H]-E3S in mock cells: 0.02 µM [3H]-E3S, 200 µM E3S, 300 µM or 0.2–1022 µM probenecid, 10,000 µM acamprosate, Lab. 2; for effect on uptake of [14C]-PAH in mock cells: 9.5 µM [14C]-PAH, 200 µM PAH, 300 µM or 0.02–1022 µM probenecid, acamprosate
# Method: All uptake experiments were performed on 24- or 96-well plates. Before the experiment initiation, the cells were incubated with either 500 or 200 µL∙well^−1 prewarmed buffer for 10 min at 37 °C in a microplate incubator (VWR International AB, Stockholm, Sweden), without shaking. […] The experiment was stopped by adding 200 µL∙well^−1 of ice-cold buffer and subsequent rinse three times with the same amount of buffer. […] A total of 50 µL of cell lysate from each well was transferred to 96-well Luma plates bottom coated with dry scintillant. Then, 2∙20 µL of each donor and three 50 µL blank samples were applied on the same plate. The dry plates were covered with transparent seals and analyzed using a TopCount NXT Microplate Scintillation and Luminescence Counter (Perkin Elmer, Waltham, MA, USA). The remaining 20 µL cell lysate was neutralized with 20 µL 1M HCl∙well^−1, samples were mixed thoroughly and the total protein content in all the wells was measured using a BCA protein assay kit, microplate method, and a Tecan Safire II fluorometer (Tecan Austria GmbH, Grödig, Austria). […] The total protein content was measured by using a BCA protein assay kit and a FLUOStar Omega fluorescence microplate reader (BMG Labtech, Ortenberg, Germany). The protein assay for the OAT3 and mock cell lines was performed in four independent wells of each cell line, seeded and treated in the same manner as the cells used in the uptake assay. For all the OAT1, OAT3, and mock isotope uptake studies, the radiolabelled tracer accumulation (pmol) in each well was calculated by first determining the activity of the isotope (DPM∙pmol^−1) from the radioactivity (DPM) of the donor sample divided by the theoretical isotope concentration (pmol), then dividing the total radioactivity in the well (DPM) to the specific activity of the isotope (DPM∙pmol^−1).
# [5] = Clinical pharmacokinetics in humans (literature); conditions: probenecid, oral, calculated from Cmax and fu
# [6] = system: OAT; set-up: method as in PMID 23085876; conditions: OAT mediated DDI by probenecid, compared to control; cited from earlier work
# [7] = system: HEK293-Flp-In OAT3 cells; test: CellTiter-Glo cell viability assay, OAT3 transfected cells
# [8] = system: HEK293-Flp-In OAT1 cells; test: CellTiter-Glo cell viability assay, OAT1 transfected cells
# [9] = system: HEK293-Flp-In mock cells; test: CellTiter-Glo cell viability assay, mock cells
# [10] = system: human kidney slices; set-up: method as in PMID 17255469; conditions: read-out: Km of PAH; cited from earlier work
# [11] = substrate: CC(=O)NCCCS(=O)(=O)O; test: Acamprosate intracellular uptake and inhibition of uptake in HEK293-Flp-In OAT1 cells (LC/MS-MS); format: cell-based, human; conditions: other: HEK293-Flp-In OAT1 cells, 10 min, pH 7.4, Lab. 1
# [12] = 3 h, 1000 µM p-aminohippuric acid, 200 µM estrone-3-sulfate (Figure 8A)
molecule,measurement,setting,value
Nc1nc2c(ncn2COCCO)c(=O)[nH]1 [acyclovir],Km,[1],342 µM
CCCN(CCC)S(=O)(=O)c1ccc(C(=O)O)cc1 [probenecid],effect on uptake of [3H]-E3S in OAT3 expressing cells,[2],significantly decreased
same,Cmax,[3]; 500 mg,124 ± 30 µM
same,"fu, fraction unbound in plasma",[3]; 500 mg,0.07 [53]
same,Cmax,[3]; 1000 mg,244 ± 94 µM
same,"fu, fraction unbound in plasma",[3]; 1000 mg,0.11 [53]
same,Cmax,[3]; 2000 mg,521 ± 166 µM
same,"fu, fraction unbound in plasma",[3]; 2000 mg,0.17 [53]
same,effect on uptake of [3H]-E3S in mock cells,[4],no inhibition
same,effect on uptake of [3H]-E3S in mock cells,[4]; listed as Probenecid,no inhibitory effect
same,effect on uptake of [14C]-PAH in mock cells,[4]; Lab. 1,no effect
same,effect on uptake of [14C]-PAH in mock cells,"[4]; Lab. 1, listed as Probenecid",no inhibitory effect
same,effect on acamprosate uptake in mock cells,"[4]; 200 µM acamprosate, 0.02–1022 µM probenecid, Lab. 1",no inhibitory effect
same,"Cmax,u",[5]; 500 mg,8.66 ± 2.09 µM
same,"Cmax,u",[5]; 1000 mg,26.83 ± 10.37 µM
same,"Cmax,u",[5]; 2000 mg,88.53 ± 28.24 µM
same,change in AUC of other inhibited drugs,[6],1.1–2.4 fold
same,change in CLR of other inhibited drugs,[6],0.3–0.7 fold
Nc1nc(O)c2ncn(COC(CO)CO)c2n1 [ganciclovir],Km,[1],896 µM
CC(=O)Nc1ccc(O)cc1 [acetaminophen],IC50,[1]; read-out: IC50 of other drug substances inhibiting OAT1,639 µM
"CCCCCCCCCCCCOS(=O)(=O)[O-].[Na+] [SDS, sodium dodecyl sulfate]",decrease in cell viability,"[7]; 0.5% SDS, 3 h incubation",more than 95%
same,decrease in cell viability,"[8]; 0.5% SDS, 3 h incubation",approximately 50%
same,decrease in cell viability,"[9]; 0.5% SDS, 3 h incubation",more than 95%
O=S(=O)(O)CCSSCCS(=O)(=O)O [dimesna],Km,[1],636 µM
CN(Cc1cnc2nc(N)nc(N)c2n1)c1ccc(C(=O)N[C@@H](CCC(=O)O)C(=O)O)cc1 [methotrexate],Km,[1],554 to 724 µM
Nc1ccc(C(=O)NCC(=O)O)cc1 [p-aminohippuric acid],effect on cell viability,[7]; [12],did not decrease cell viability
same,Km,[10],~39 µM
same,effect on cell viability,"[8]; 3 h, 1000 µM p-aminohippuric acid, 200 µM estrone-3-sulfate (Figure 8B)",did not decrease cell viability
same,effect on uptake of [14C]-PAH in mock cells,[4]; Lab. 1,no effect
same,saturability of dose-dependent substrate uptake in mock cells,"[4]; same substrate concentrations as in transfected cells, acamprosate 0.33–3300 µM",not saturable
same,effect on cell viability,[9]; [12],did not decrease cell viability
"OAT1 (Homo sapiens) (protein, expressed in transfected cells; host or cells: HEK293-Flp-In) MAFNDLLQQVGGVGRFQQIQVTLVVLPLLLMASHNTLQNFTAAIPTHHCRPPADANLSKNGGLEVWLPRDRQGQPESCLRFTSPQWGLPFLNGTEANGTGATEPCTDGWIYDNSTFPSTIVTEWDLVCSHRALRQLAQSLYMVGVLLGAMVFGYLADRLGRRKVLILNYLQTAVSGTCAAFAPNFPIYCAFRLLSGMALAGISLNCMTLNVEWMPIHTRACVGTLIGYVYSLGQFLLAGVAYAVPHWRHLQLLVSAPFFAFFIYSWFFIESARWHSSSGRLDLTLRALQRVARINGKREEGAKLSMEVLRASLQKELTMGKGQASAMELLRCPTLRHLFLCLSMLWFATSFAYYGLVMDLQGFGVSIYLIQVIFGAVDLPAKLVGFLVINSLGRRPAQMAALLLAGICILLNGVIPQDQSIVRTSLAVLGKGCLAASFNCIFLYTGELYPTMIRQTGMGMGSTMARVGSIVSPLVSMTAELYPSMPLFIYGAVPVAASAVTVLLPETLGQPLPDTVQDLESRWAPTQKEAGIYPRKGKQTRQQQEHQKYMVPLQASAQEKNGL",Km,[11],700 µM and 698 ± 192 µM
